Measured values from patent publication US10124012B2, “Method for treatment of hyperglycemia and hyperlipidemia” (priority 2016, dated 2018).

Experiments:
Format in all cases: in vivo, C57BL/6J mice
[1] = tested on: high-fat diet-fed C57BL/6J mouse; assay: Body weight, tissue weights and food intake in HFD-fed mice; settings: for Absolute tissue weight Visceral fat: sum of EWAT and RWAT
Text: (§1) The 4-week old male C57BL/6J mice (total amount n=63) were obtained from the National Laboratory Animal Center (Taipei, Taiwan). After acclimatization for one week, all of the mice were randomly assigned into a control (CON) group and a high-fat diet (HFD) group. […] After HFD feeding for 8 weeks, the HFD group was randomly subdivided into six groups (n=9 per group) receiving different treatments and fed on HFD. […] The HF+AnK1, HF+AnK2, and HF+AnK3 groups are collectively termed AnK-treated HFD groups in the following examples. The CON mice were administered vehicle. All treatments were administered via oral gavage once daily. After administration for 4 weeks, all mice were fasted 12 hours, and blood was collected from the retro-orbital sinus under ether anesthesia. At the end of the experiment, the mice were sacrificed via carbon dioxide inhalation. Liver, adipose tissue, and skeletal muscle were collected and immediately stored at −80° C. for target gene analysis.
The metabolic parameters, including body weight, weight gain, and food intake, were performed as the following. Body weight was daily measured at the same time throughout the study. Body weight gain is considered as the weight difference between two consecutive days. The amount of pellet food was weighted, followed by weighting the amount of remaining food after 24 hours. The difference between the two weights is defined as daily food intake.

[2] = tested on: high-fat diet-fed C57BL/6J mouse; assay: Blood glucose levels and biochemical parameters in HFD-fed mice; settings: for blood glucose levels: fasting, week 12, oral gavage once daily 4 weeks; for blood glucose levels / blood adiponectin levels / circulating free fatty acid (FFA) levels / circulating total cholesterol (TC) levels / circulating triglycerides (TG) levels / levels of blood insulin / levels of blood leptin: AnK 10, 20, 40, Feno 250, Metf 300 mg/kg/day; for blood adiponectin levels / circulating free fatty acid (FFA) levels / circulating total cholesterol (TC) levels / circulating triglycerides (TG) levels / levels of blood insulin / levels of blood leptin: oral gavage once daily 4 weeks
Experimental: Animal studies were performed and approved under the guidelines of the Institutional Animal Care and Use Committee in Taiwan (12 Mar. 2015). […] After acclimatization for one week, all of the mice were randomly assigned into a control (CON) group and a high-fat diet (HFD) group. For the following 12 weeks, the CON group (n=9) received a control diet or a low-fat diet (Diet 12450B, Research Diets, Inc., New Brunswick, N.J., USA), while the HFD group (n=54) received a high-fat diet (Diet 12451, Research Diets, New Brunswick, N.J., USA). […] After HFD feeding for 8 weeks, the HFD group was randomly subdivided into six groups (n=9 per group) receiving different treatments and fed on HFD. […] The HF+AnK1, HF+AnK2, and HF+AnK3 groups are collectively termed AnK-treated HFD groups in the following examples. The CON mice were administered vehicle. All treatments were administered via oral gavage once daily. After administration for 4 weeks, all mice were fasted 12 hours, and blood was collected from the retro-orbital sinus under ether anesthesia. At the end of the experiment, the mice were sacrificed via carbon dioxide inhalation. Liver, adipose tissue, and skeletal muscle were collected and immediately stored at −80° C. for target gene analysis. A portion of the blood samples obtained from the retro-orbital sinus of fasted mice were immediately used to measure blood glucose levels using Sidekick glucose analyzer (YSI 1500, YSI Incorporated, Yellow Springs, USA) according to the glucose oxidase method. Heparin (30 units/mL, Sigma) was added into other portions of the blood samples. Plasma samples for the following analysis were prepared from these blood samples via centrifugation at 1600 g for 15 minutes at 4° C., followed by plasma separation within 30 minutes. Blood levels of triglycerides (TG), total cholesterol (TC), and free fatty acids (FFA) were determined using commercial assay kits in accordance with manufacturer's directions (Triglycerides-E test, Cholesterol-E test and FFA-C test, Wako Pure Chemical, Osaka, Japan). Blood levels of insulin, leptin, and adiponectin were measured by enzyme-linked immunosorbent assay (mouse insulin ELISA kit, Mercodia, Uppsala, Sweden; mouse leptin ELISA kit, Morinaga, Yokohama, Japan; mouse adiponectin ELISA kit, Crystal Chem International, Downers Grove, Ill., USA).

[3] = tested on: phospho-AMPK (Thr^172)/total-AMPK; assay: Western blotting of phospho-AMPK/total-AMPK in skeletal muscle and liver; settings: HFD-induced reduction, AnK 10, 20, 40, Feno 250, Metf 300 mg/kg/day, vs HF group
Text: as §1
About 0.1 g of liver tissue, skeletal muscle, or adipose tissue was used for the homogenate samples. Samples were powdered under liquid nitrogen and homogenized for 20 seconds in 500 μL buffer containing 20 mM Tris-HCl (pH 7.4 at 4° C.), 2% SDS, 5 mM EDTA, 5 mM EGTA, 1 mM dithiothreitol (DTT), 100 mM NaF, 2 mM sodium vanadate, 0.5 mM phenylmethylsulfonyl fluoride, 10 μg/mL leupeptin, and 10 μL/mL pepstatin. The total membrane fraction was used for measurement. The protein concentration in supernatant was determined with a BCA protein assay kit (Thermo Scientific, Rockford, Ill., USA). […] The membrane was blocked with 5% slim milk in Tris-buffered saline (TBS)(Amersham BioSciences, Uppsala, Sweden) containing 0.05% Tween-20 (Bio Rad, CA, USA) and incubated overnight at 4° C. with antibodies at 1:200 dilution. Subsequently, the membrane was washed three times with TBS containing 0.05% Tween-20 and incubated with secondary antibody anti-rabbit (1:1000)(Jackson ImmunoResearch Laboratories, Inc., PA, USA) for 1 hour. Immunoreactive bands were detected with ECL reagent kit (GE Healthcare BioSciences, Buckinghamshire, UK). The intensity of Western blot signals was analyzed using AlphaEase FC software (Alpha Innotech Corporation, Randburg, South Africa). The structural protein GAPDH in the samples was used as the loading control.

[4] = HF + Metf: metformin 300 mg/kg/day oral gavage 4 weeks
[5] = HF + AnK1: AnK 10 mg/kg/day oral gavage 4 weeks
[6] = HF + AnK2: AnK 20 mg/kg/day oral gavage 4 weeks
[7] = HF + AnK3: AnK 40 mg/kg/day oral gavage 4 weeks

CN(C)C(=N)N=C(N)N [Metf, metformin, reference compound]
Absolute tissue weight BAT [1, 4]: 0.220 ± 0.025 g
Absolute tissue weight EWAT [1, 4]: 0.813 ± 0.064 g
Absolute tissue weight Liver [1, 4]: 0.908 ± 0.031 g
Absolute tissue weight MWAT [1, 4]: 0.270 ± 0.018 g
Absolute tissue weight RWAT [1, 4]: 0.298 ± 0.027 g
Absolute tissue weight Skeletal muscle [1, 4]: 0.380 ± 0.025 g
Absolute tissue weight Spleen [1, 4]: 0.093 ± 0.006 g
Final body weight [1, 4]: 27.86 ± 0.72 g
Food intake [1, 4]: 1.89 ± 0.04 g/day/mouse
Weight gain [1, 4]: 0.92 ± 0.08 g
Absolute tissue weight Visceral fat [1, 4]: 1.111 ± 0.077 g
blood glucose levels ([2]; vs HF group): significantly reduced
blood adiponectin levels ([2]; vs HF group): markedly enhanced
circulating free fatty acid (FFA) levels ([2]; vs HF group): decreased
circulating total cholesterol (TC) levels ([2]; vs HF group): decreased
circulating triglycerides (TG) levels ([2]; vs HF group): decreased
levels of blood insulin ([2]; vs HF group): effectively reduced
levels of blood leptin ([2]; vs HF group): effectively reduced
expression levels of phospho-AMPK/total-AMPK ([3]; liver): significantly reversed
expression levels of phospho-AMPK/total-AMPK ([3]; skeletal muscle): significantly reversed

C=C(CC[C@@H](C)[C@H]1CC[C@H]2C3=C(C(=O)C[C@]12C)[C@@]1(C)CC[C@@H](O)[C@](C)(O)[C@@H]1C[C@@H]3O)C(C)C(=O)O (stereo partly drawn) [AnK, 3α,4β,7β-trihydroxy-4α-methylergosta-8,24(28)-dien-11-on-25S-26-oic acid]
Absolute tissue weight BAT [1, 5]: 0.178 ± 0.007 g
Absolute tissue weight EWAT [1, 5]: 0.867 ± 0.065 g
Absolute tissue weight Liver [1, 5]: 0.946 ± 0.030 g
Absolute tissue weight MWAT [1, 5]: 0.349 ± 0.020 g
Absolute tissue weight RWAT [1, 5]: 0.323 ± 0.039 g
Absolute tissue weight Skeletal muscle [1, 5]: 0.395 ± 0.036 g
Absolute tissue weight Spleen [1, 5]: 0.090 ± 0.003 g
Final body weight [1, 5]: 28.30 ± 0.61 g
Food intake [1, 5]: 1.95 ± 0.05 g/day/mouse
Weight gain [1, 5]: 1.39 ± 0.81 g
Absolute tissue weight BAT [1, 6]: 0.172 ± 0.010 g
Absolute tissue weight EWAT [1, 6]: 0.841 ± 0.062 g
Absolute tissue weight Liver [1, 6]: 0.888 ± 0.019 g
Absolute tissue weight MWAT [1, 6]: 0.340 ± 0.013 g
Absolute tissue weight RWAT [1, 6]: 0.339 ± 0.031 g
Absolute tissue weight Skeletal muscle [1, 6]: 0.364 ± 0.022 g
Absolute tissue weight Spleen [1, 6]: 0.085 ± 0.003 g
Final body weight [1, 6]: 27.55 ± 0.72 g
Food intake [1, 6]: 1.92 ± 0.07 g/day/mouse
Weight gain [1, 6]: 0.70 ± 0.86 g
Absolute tissue weight BAT [1, 7]: 0.175 ± 0.008 g
Absolute tissue weight EWAT [1, 7]: 0.809 ± 0.058 g
Absolute tissue weight Liver [1, 7]: 0.883 ± 0.018 g
Absolute tissue weight MWAT [1, 7]: 0.332 ± 0.025 g
Absolute tissue weight RWAT [1, 7]: 0.306 ± 0.040 g
Absolute tissue weight Skeletal muscle [1, 7]: 0.364 ± 0.028 g
Absolute tissue weight Spleen [1, 7]: 0.104 ± 0.007 g
Final body weight [1, 7]: 27.48 ± 0.46 g
Food intake [1, 7]: 1.98 ± 0.04 g/day/mouse
Weight gain [1, 7]: 0.58 ± 0.35 g
Absolute tissue weight Visceral fat [1, 5]: 1.190 ± 0.093 g
Absolute tissue weight Visceral fat [1, 6]: 1.180 ± 0.106 g
Absolute tissue weight Visceral fat [1, 7]: 1.154 ± 0.096 g
glucose-lowering effect compared with metformin ([2]; AnK 40 mg/kg body weight/day vs metformin 300 mg/kg/day): comparable to that of metformin
lowering of blood glucose levels ([2]; AnK at 10, 20, and 40 mg/kg body weight/day, vs HF group): 26.8-36.0%
decrease of circulating TG ([2]; AnK treatment (10, 20, 40 mg/kg/day), vs HF group): 28.5-32.8%
TG-lowering effect compared with fenofibrate ([2]; AnK treatment vs fenofibrate 250 mg/kg/day): comparable to the TG-lowering effect of fenofibrate
blood glucose levels ([2]; vs HF group): significantly reduced
blood adiponectin levels ([2]; vs HF group): markedly enhanced
circulating free fatty acid (FFA) levels ([2]; vs HF group): decreased
circulating total cholesterol (TC) levels ([2]; vs HF group): decreased
circulating triglycerides (TG) levels ([2]; vs HF group): decreased
levels of blood insulin ([2]; vs HF group): effectively reduced
levels of blood leptin ([2]; vs HF group): effectively reduced
expression levels of phospho-AMPK/total-AMPK ([3]; liver): significantly reversed
expression levels of phospho-AMPK/total-AMPK ([3]; skeletal muscle): significantly reversed
